Consider 1 compound from patent publication US11186627B2 (priority 2013, dated 2021).

Several values for one entry are separate records, joined by “and”; a condition that tells them apart may be missing. Identical values can stand only once.

The subject of assay [1] is A/California/7/09 (H1N1) (H1-CA09). The settings on record: mouse, in vivo.
Assay [2] relates to ANN/1203/04 (H5N1) highly pathogenic avian influenza virus. Further details: species or system ferret. The settings on record: in vivo, 25 mg/kg.

For `CCOC(=O)C1=C[C@@H](OC(CC)CC)[C@H](NC(C)=O)[C@@H](N)C1` [oseltamivir], the survival result in assay [1] is “succumbed to the infection”. In assay [2], the “mean day of death” value was 12 and 9; the survival rate was 100%.
